{"source": "paper PMC2878737", "about": "(Channels (Austin, Tex.), 2009)", "key": {"NaV1.2": {"target": "NaV1.2 (Rattus norvegicus, UniProt P04775)", "sequence (P04775 whole entry, looked up)": "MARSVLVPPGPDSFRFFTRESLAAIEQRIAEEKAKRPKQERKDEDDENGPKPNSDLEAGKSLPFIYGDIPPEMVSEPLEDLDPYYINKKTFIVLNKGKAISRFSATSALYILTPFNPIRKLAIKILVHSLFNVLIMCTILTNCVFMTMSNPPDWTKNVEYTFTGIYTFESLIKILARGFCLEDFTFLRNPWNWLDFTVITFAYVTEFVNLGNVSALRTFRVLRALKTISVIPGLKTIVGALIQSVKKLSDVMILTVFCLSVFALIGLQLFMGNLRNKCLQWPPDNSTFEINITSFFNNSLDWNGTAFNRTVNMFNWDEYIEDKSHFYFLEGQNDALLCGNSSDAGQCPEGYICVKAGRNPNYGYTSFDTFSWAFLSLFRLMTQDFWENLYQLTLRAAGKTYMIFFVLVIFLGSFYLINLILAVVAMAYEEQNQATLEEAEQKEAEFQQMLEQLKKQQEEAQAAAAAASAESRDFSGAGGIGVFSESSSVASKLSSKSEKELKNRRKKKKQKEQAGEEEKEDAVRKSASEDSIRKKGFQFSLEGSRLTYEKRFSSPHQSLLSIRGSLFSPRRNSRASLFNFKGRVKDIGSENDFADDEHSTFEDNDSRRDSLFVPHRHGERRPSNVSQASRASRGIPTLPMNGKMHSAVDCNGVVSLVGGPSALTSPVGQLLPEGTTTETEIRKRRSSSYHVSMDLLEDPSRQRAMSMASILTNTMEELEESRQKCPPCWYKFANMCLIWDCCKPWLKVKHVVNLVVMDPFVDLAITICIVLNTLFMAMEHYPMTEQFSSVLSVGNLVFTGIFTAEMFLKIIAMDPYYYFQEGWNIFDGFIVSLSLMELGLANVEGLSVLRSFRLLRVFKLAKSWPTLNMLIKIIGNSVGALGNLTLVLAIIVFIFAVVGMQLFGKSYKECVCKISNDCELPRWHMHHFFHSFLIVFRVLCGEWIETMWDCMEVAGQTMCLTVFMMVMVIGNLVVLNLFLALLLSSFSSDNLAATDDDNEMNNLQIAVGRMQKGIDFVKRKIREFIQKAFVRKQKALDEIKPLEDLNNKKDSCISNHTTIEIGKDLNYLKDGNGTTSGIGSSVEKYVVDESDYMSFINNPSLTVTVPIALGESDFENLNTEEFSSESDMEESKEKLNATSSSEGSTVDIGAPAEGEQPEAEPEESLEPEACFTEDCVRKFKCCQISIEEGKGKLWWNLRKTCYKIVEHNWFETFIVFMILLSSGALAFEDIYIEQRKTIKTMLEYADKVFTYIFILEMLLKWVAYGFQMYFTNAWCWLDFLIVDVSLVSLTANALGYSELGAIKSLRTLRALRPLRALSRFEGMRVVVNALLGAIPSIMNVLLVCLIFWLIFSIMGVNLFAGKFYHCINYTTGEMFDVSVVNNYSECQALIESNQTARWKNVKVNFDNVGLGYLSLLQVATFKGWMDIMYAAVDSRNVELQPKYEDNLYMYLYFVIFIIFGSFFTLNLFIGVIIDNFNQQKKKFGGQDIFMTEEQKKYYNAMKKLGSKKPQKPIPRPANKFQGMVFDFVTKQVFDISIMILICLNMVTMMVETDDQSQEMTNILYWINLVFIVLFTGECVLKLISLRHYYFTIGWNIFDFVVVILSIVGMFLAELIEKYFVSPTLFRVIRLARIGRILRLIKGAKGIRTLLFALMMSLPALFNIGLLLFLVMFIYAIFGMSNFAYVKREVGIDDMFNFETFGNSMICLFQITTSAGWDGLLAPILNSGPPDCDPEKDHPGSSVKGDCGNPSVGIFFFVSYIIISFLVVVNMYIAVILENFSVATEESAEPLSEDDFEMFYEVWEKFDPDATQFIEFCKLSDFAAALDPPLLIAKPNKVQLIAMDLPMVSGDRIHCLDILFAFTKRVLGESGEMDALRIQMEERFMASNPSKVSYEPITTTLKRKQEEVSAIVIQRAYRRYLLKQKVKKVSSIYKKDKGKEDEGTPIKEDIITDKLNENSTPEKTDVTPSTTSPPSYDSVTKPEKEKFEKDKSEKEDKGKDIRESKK"}, "NaV1.2[F385C]": {"target": "NaV1.2[F385C] (Rattus norvegicus, UniProt P04775, F385C)", "sequence (P04775 whole entry F385C, looked up)": "as the sequence (P04775 whole entry, looked up) above, with F385C counted along it", "settings": "cited from earlier work"}}, "data": [{"smiles": "NC1=N[C@H](O)[C@H]2[C@H]3O[C@]4(O)O[C@@H]([C@@H](O)[C@@]2(N1)[C@@H]4O)[C@]3(O)CO", "note": "[TTX, Tetrodotoxin]", "values": [{"measurement": "Plateau of block at saturating [toxin] (Langmuir fit)", "setting": "NaV1.2", "result": 100, "unit": "%"}, {"measurement": "sensitivity of NaV1.2[F385C]", "setting": "NaV1.2[F385C]", "result": "insensitive"}]}]}
